Assay: Test for the content of related substances (stability in solution, HPLC)
Type: physicochemical
Conditions: dissolved in a solution
Description: Experimental Example 1—Test for the Content of Related Substances […] Thereafter, the contents of related substances were measured by high-performance liquid chromatography (HPLC). The same procedure was repeated except that crystalline efinaconazole was used instead of the solid dispersion.

In the case of `C=C1CCN([C@H](C)[C@](O)(Cn2cncn2)c2ccc(F)cc2F)CC1` [Efinaconazole, (2R,3R)-2-(2,4-difluorophenyl)-3-(4-methylenepiperidin-1-yl)-1-(1H-1,2,4-triazol-1-yl)butan-2-ol], the “content of related substances” value (oven at 65° C., 0 (initial)) is reported as 0, the “content of related substances” value (oven at 65° C., 1 week) is reported as 0.45% and the “content of related substances” value (oven at 65° C., 2 weeks) is reported as 0.54%. For the same compound, the “content of related substances” value (oven at 65° C., 4 weeks) was 1.53%, the “content of related substances” value (room temperature, 0 (initial)) was 0 and the “content of related substances” value (room temperature, 1 week) was 0.27%. For the same compound, the “content of related substances” value (room temperature, 2 weeks) was 0.39% and the “content of related substances” value (room temperature, 4 weeks) was 0.40%.

From patent US12023408B2, “Amorphous efinaconazole solid dispersion” (DAEBONG LS CO., LTD., priority 2019, dated 2024)
